Measurements taken from patent US20250002461A1, “DEUTERATED (TRIFLUOROMETHYL)PYRIMIDINE-2-AMINE COMPOUNDS AS POTENTIATORS OF THE HMRGX1 RECEPTOR” (Eli Lilly and Company, priority 2021, published 2025).
Like-named read-outs stand apart in the source and are kept apart here.

Tests used:
[1] = Intrinsic clearance in mouse cryopreserved hepatocytes; type: in vitro ADME; conditions: 0.3 μM substrate, 37° C.
Protocol: (§1) In Vitro Determination of Intrinsic Clearance in Mice and Human Hepatocytes
(§2) Cryopreserved hepatocytes are used to determine the in vitro metabolic clearance of pharmaceutical candidates. The following assay was conducted to compare the compound of Example 1 to its undeuterated analog, referred to hereinafter as Compound A:
(§3) Compound incubations (0.3 μM substrate concentrations) were then performed in a 96-well plate format at 37° C. with 200,000 cells/well, shaking at approximately 600 rpm. Incubations were initiated by direct addition of 2 μL of the substrate compounds. At 0, 15, 30, 60, and 90 minutes, 20 μL of incubation samples were quenched with 80 μL acetonitrile containing internal standard. Quenched plates were foil sealed, centrifuged for 30 minutes at 4000 rpm and analyzed for substrate by liquid chromatography with tandem mass spectrometry (LC-MS/MS).
(§4) Intrinsic clearance is a measure of the maximum potential liver metabolism of a compound when not restricted by blood flow or protein binding This intrinsic clearance was determined from the elimination rate constants (kdep; min^−1) measured from the disappearance of substrate in the incubations over time, using the following equation: […]

[2] = Intrinsic clearance in human cryopreserved hepatocytes; type: in vitro ADME; conditions: 0.3 μM substrate, 37° C.
Protocol: as §1, §2, §3, §4

[3] = Determination of pharmacokinetics in mice; type: in vivo, mouse; conditions: male CD-1 mice; for CLIV / Vd: IV 1 mg/kg; for Vd / bioavailability: mouse, whole blood (dried blood spot); for Vd: read-out: Vd, ss; for bioavailability: PO 10 mg/kg vs IV 1 mg/kg
Protocol: Determination of Pharmacokinetics in Mice
Subjects: The subjects for these studies were male CD-1 mice from either Envigo, (Indianapolis, IN, USA) or Charles River Laboratories, Inc (Raleigh, NC, USA) between 4-12 weeks old at time of test. Each dosing group has three animals, and food and water is available ad libitum.
Dosing and Sample Collection: The test compound was administered intravenously (IV) via tail vein at 1 mg/kg (using vehicle: 25% (v/v) Dimethylacetamide (DMA), 15% (v/v) Ethanol (EtOH), 10% (v/v) Propylene Glycol (PG), 25% 2-Pyrrolidone (2-P), and 25% purified water) and orally (PO) via gavage needle at 10 mg/kg (using a vehicle of 1% (w/v) Hydroxyethylcellulose, 0.25% (w/v) Polysorbate 80, 0.05% (v/v) Antifoam1510-US in purified water quantum satis. Blood for dried blood spot (DBS) collection (approximately 20 μL) was collected from each available animal via a saphenous vein utilizing K2EDTA capillary tubes and stored at ambient temperature until analysis. Serial blood samples are collected at 0.08, 0.25, 0.5, 1, 2, 4, 8, 12, 24, and 48 h post dose for IV bolus and at 0.25, 0.5, 1, 2, 4, 8, 12, 24, and 48 h post dose after oral administration.
Sample Analysis: DBS cards (3 mm punches) of samples or standards were each mixed with a 180 uL solution of methanol: acetonitrile (1/1, v/v) containing internal standard to extract analyte followed by a two-fold dilution with water. A 10 uL aliquot of sample or standard is analyzed using an LC-MS/MS method. For Compound A, the lower limit of quantification (LLQ) was 5 ng/ml and the upper limit of quantification (ULQ) was 2500 ng/mL. For the compound of Example 1, the LLQ was 10 ng/ml and ULQ was 10,000 ng/mL
Calculation of pharmacokinetic parameters: Test article concentration data was uploaded into the Thermo Scientific™ Watson LIMS™ system where noncompartmental analysis was used to calculate Area Under the Curve (AUC) for both IV and PO arms, and Mean Residence Time (MRT) from the IV arm. • Bioavailability (% F) was calculated as follows,
[formula] • IV Clearance (CLIV) was calculated as follows,
[formula] • Volume of distribution at steady state (Vd,ss) was calculated as follows, […]

human MrgX1 receptor = target: T1, human MrgX1 receptor (Homo sapiens, UniProt Q96LB2); test: IP1 cellular assay for EC50 determination against hMrgX1 by HTRF; type: cell-based; conditions: for EC50: HEK293 cells expressing human MrgX1, in presence of EC15 of BAM8-22, geometric mean (SEM, n), read-out: Relative EC50 (SEM, n); for Max (Mean ± SEM): maximum stimulation relative to saturating BAM8-22
T1 construct: expressed in transfected cells
Protocol: IP1 Cellular Assay for EC50 Determination Against hMrgX1 by HTRF
Cell plating: HEK293 cells stably expressing the recombinant human MrgX1 receptor were expanded in culture flasks (Corning, T150), using growth media containing DMEM with glutamine (GIBCO™ Cat. #11960-044) supplemented with 10% heat-inactivated FBS (HyClone™, Cat. #CH30073), 1% penicillin/streptomycin (HyClone™, Cat. #SV30010; 10,000 U/mL penicillin; 10,000 μg/mL streptomycin in 0.85% NaCl), 20 mM HEPES (GIBCO™, Cat. #15630122) and 0.3 mg/mL G418 (GIBCO™ Cat. #11811031). When cell monolayers achieved a level of 80-90% confluence, monolayers were washed once with 10 mL of DPBS (HyClone™, Cat. #14190-144), dissociated using TrypLE™ Express enzyme cell dissociation media (GIBCO™ Cat. #12605-010), and were diluted by addition of 10 mL DPBS. Dissociated cells were transferred to a sterile 50 mL conical tube, pelleted by centrifugation at 300×g to remove the growth and dissociation media, and diluted to 1M cells/mL into DMEM for plating.
IP1 Potency and Efficacy Determination: Test compounds were dissolved in DMSO to a concentration of 10 mM and serially diluted in DMSO to obtain a 10-point concentration response stock dilution plate. Growth media was removed from the cell plate, and the stock 10-point dilution plate was diluted into media and stamped into the cell plate at a concentration 2× higher than the final test concentration of […] maximum. The endogenous agonist BAM8-22 (Tocris-BioScience Cat. #1763) was diluted to the EC15, determined independently at a minimum of n=3, into the cell plate and incubated at room temperature for 120 min. Subsequently, half the volume each of anti-IP1 cryptate and d2-labeled IP1 in lysis buffer, supplied with the IP-One Gq Kit (CisBio Cat. #62IPAPEC) was added to the cell plate to initiate cell lysis, and incubated for 60 min at room temperature in the dark. Fluorescence was then determined at 620 and 665 nm (˜100 us following laser excitation).
Data Analysis: Fluorescent ratios were determined as the ratio of the fluorescence emission at 665 nm over 620 nm and converted to IP1 concentration, using the IP1 standard curve generated in a separate plate, following the manufacturer's instructions. The IP1 concentration was then plotted as a function of compound concentration. […]

[4] = In vivo determination of Kp,uu,brain in mice; conditions: male, CD1 (ICR), mouse, 100 mg/kg oral
Text: In Vivo Determination of Kp,uu,Brain in Mice
Unbound brain-to-plasma partition coefficient (Kp,uu,brain) is one of the key pharmacokinetic parameters for evaluating a compound's ability to cross the blood-brain barrier (BBB). It is typically measured in pre-clinical species using the following methodology. Kp,uu,brain values indicate the fraction of free drug in plasma that partitions across the BBB.
Subjects: The subjects for these studies were 12 male CD1 (ICR) mice (Envigo, Indianapolis, IN, USA) between 5-7 weeks old at time of test. Mice were housed in groups of 4 in high density plastic home cages. Food and water were available ad libitum. The rooms were maintained at 73° F. with 30-70% relative humidity and kept on a light/dark cycle of 0600-1800 h.
Agent: The compound of Example 1 was prepared at 10 mg/ml in the 1% HEC, 0.25% TWEEN®80, 0.05% DOWSIL™ vehicle in water. Prepared compound was sonicated in water bath for 30 min until a suspension was formed. Mice were dosed orally at 10 ml/kg for a 100 mg/kg dose.
Dosing and Tissue Collection: For this experiment, ten mice received oral dosing of 100 mg/kg of the compound of Example 1. Mice were then euthanized at 2 h post-dosing via CO2 asphyxiation, plasma samples were collected via cardia puncture, and mouse brains removed, weighed, and frozen on dry ice. Blood samples were stored in EDTA tubes on wet ice and centrifuged at 15 k rpm for 10 min. Plasma was collected, plated in a 96-well plate, and frozen at −80° C.
Pharmacokinetic sampling: Plasma and brain samples obtained were analyzed for Example 1 using an LC-MS/MS method (Q2 Solutions, Indianapolis, IN, USA). Plasma samples were extracted using protein precipitation. The lower limit of quantification was 25 ng/mL, and the upper limit of quantification was 5000 ng/mL. Brain samples were homogenized, and the analyte was extracted using protein precipitation. The lower limit of quantification was 4 ng/g and the upper limit of quantification was 200000 ng/g.
Analysis and Results: Kp,uu,brain was calculated for each time point from the expression below where individual components are derived from a combination of in vitro and in vivo measurements carried out as described above:
where Ctotal,brain, Cu,brain, Ctotal,plasma, and Cu,plasma are total and unbound brain and plasma concentrations, and fu,brain and fu,plasma are fractions unbound in brain and plasma, respectively.

[5] = Plasma and brain homogenate protein binding by equilibrium dialysis; type: in vitro ADME, mouse
Protocol: Determination of plasma and brain protein binding: Mouse plasma and brain homogenate protein binding was determined in vitro using equilibrium dialysis, as described elsewhere [Zamek-Gliszczynski et al., J Pharm Sci, 101:1932-1940, 2012]. The results are reported as fraction unbound in plasma (fu,plasma) and brain (fu,brain) which are then utilized to calculate Kp,uu,brain as described below. Mouse fu,plasma and fu,brain of Example 1 was determined to be 0.0667 and 0.011, respectively.

T1 sequence (Q96LB2 whole entry): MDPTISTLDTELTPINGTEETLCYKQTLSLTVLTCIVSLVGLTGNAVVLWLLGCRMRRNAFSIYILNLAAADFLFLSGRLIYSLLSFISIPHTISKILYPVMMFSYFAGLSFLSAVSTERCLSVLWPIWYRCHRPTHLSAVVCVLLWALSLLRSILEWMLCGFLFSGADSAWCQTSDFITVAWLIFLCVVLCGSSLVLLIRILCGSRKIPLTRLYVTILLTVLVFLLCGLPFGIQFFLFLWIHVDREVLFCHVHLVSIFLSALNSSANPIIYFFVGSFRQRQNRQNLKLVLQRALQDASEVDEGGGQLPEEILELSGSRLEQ

Cc1c(Oc2c(F)cc(C#N)cc2F)nc(N)nc1C(F)(F)F [Compound A, reference compound]
hepatocyte CLint at 0.3 μM [1]: < 1.8 µL/min/1e6 cells | hepatocyte CLint at 0.3 μM [2]: 2.62 µL/min/1e6 cells | CLIV [3]: 16.1 ± 1.7 mL/min/kg | Vd [3]: 6.6 ± 0.1 L/kg | bioavailability [3]: 34 ± 3.7%

[2H]C([2H])([2H])c1c(Oc2c(F)cc(C#N)cc2F)nc(N)nc1C(F)(F)F [Example 1, 4-[2-amino-5-(trideuteriomethyl)-6-(trifluoromethyl)pyrimidin-4-yl]oxy-3,5-difluoro-benzonitrile]
EC50 (human MrgX1 receptor): 22 nM | Max (Mean ± SEM) (human MrgX1 receptor): 111 ± 14.9, n = 4% | concentration at 2 h ([4]; brain (unbound), 2 h, using mouse fu,brain 0.011, read-out: Unbound brain conc. (Cu, brain) ± SD): 0.706 ± 0.25 µM | concentration at 2 h ([4]; brain, 2 h post dose, read-out: Total brain conc. (Ctotal, brain) ± SD): 64.1 ± 22.7 µM | concentration at 2 h ([4]; plasma (unbound), 2 h, using mouse fu,plasma 0.0667, read-out: Unbound plasma conc. (Cu, plasma) ± SD): 1.25 ± 0.418 µM | concentration at 2 h ([4]; plasma, 2 h post dose, read-out: Total plasma conc. (Ctotal, plasma) ± SD): 18.8 ± 6.26 µM | Kp uu at 2 h ([4]; 2 h, unbound brain-to-plasma partition coefficient): 0.586 | fraction unbound ([5]; mouse brain homogenate, read-out: fraction unbound in brain (fu,brain)): 0.011 | fraction unbound ([5]; mouse plasma, read-out: fraction unbound in plasma (fu,plasma)): 0.0667 | hepatocyte CLint at 0.3 μM [1]: < 1.8 µL/min/1e6 cells | hepatocyte CLint at 0.3 μM [2]: 6.47 µL/min/1e6 cells | CLIV [3]: 7.7 ± 1.3 mL/min/kg | Vd [3]: 9.5 ± 3.1 L/kg | bioavailability [3]: 60 ± 2.6%

[2H]C([2H])([2H])c1c(Oc2c(F)cccc2F)nc(N)nc1C(F)(F)F [Example 2, 4-(2,6-difluorophenoxy)-5-(trideuteriomethyl)-6-(trifluoromethyl)pyrimidin-2-amine]
EC50 (human MrgX1 receptor): 28 nM | Max (Mean ± SEM) (human MrgX1 receptor): 106 ± 8.16, n = 4%
